Test results from ChEMBL document CHEMBL5113480, “Discovery of novel biphenyl-substituted pyridone derivatives as potent non-nucleoside reverse transcriptase inhibitors with promising oral bioavailability” (Eur J Med Chem, 2022).

Legend:
[1] = tested on: Human immunodeficiency virus 1; test: Antiviral activity against HIV-1 IIIB infected in human MT4 cells assessed as reduction in viral replication by MTT assay; format: functional, organism-based; conditions: Human immunodeficiency virus 1, IIIB
[2] = tested on: Human immunodeficiency virus 1; test: Antiviral activity against HIV-1 ROD infected in human MT4 cells assessed as reduction in viral replication by MTT assay; format: functional, organism-based
[3] = Cytotoxicity against human MT4 cells assessed as reduction on cell growth by MTT assay; format: toxicity, cell-based
[4] = Selectivity index, ratio of CC50 for cytotoxicity against human MT4 cells to EC50 of Anti-HIV activity against HIV-1 IIIB infected in human MT4 cells; format: toxicity, cell-based; conditions: read-out: Ratio CC50/EC50
[5] = tested on: Human immunodeficiency virus 1; test: Antiviral activity against HIV-1 L100I mutant infected in human MT4 cells assessed as reduction in viral replication by MTT assay; format: functional, organism-based; conditions: Human immunodeficiency virus 1, L100I mutant
[6] = tested on: Human immunodeficiency virus 1; test: Antiviral activity against HIV-1 K103N mutant infected in human MT4 cells assessed as reduction in viral replication by MTT assay; format: functional, organism-based; conditions: Human immunodeficiency virus 1, K103N mutant
[7] = tested on: Human immunodeficiency virus 1; test: Antiviral activity against HIV-1 Y181C mutant infected in human MT4 cells assessed as reduction in viral replication by MTT assay; format: functional, organism-based; conditions: Human immunodeficiency virus 1, Y181C mutant
[8] = tested on: Human immunodeficiency virus 1; test: Antiviral activity against HIV-1 Y188L mutant infected in human MT4 cells assessed as reduction in viral replication by MTT assay; format: functional, organism-based; conditions: Human immunodeficiency virus 1, Y188L mutant
[9] = tested on: Human immunodeficiency virus 1; test: Antiviral activity against HIV-1 E138K mutant infected in human MT4 cells assessed as reduction in viral replication by MTT assay; format: functional, organism-based; conditions: Human immunodeficiency virus 1, E138K mutant
[10] = tested on: Human immunodeficiency virus 1; test: Antiviral activity against HIV-1 F227L-V106A mutant infected in human MT4 cells assessed as reduction in viral replication by MTT assay; format: functional, organism-based; conditions: Human immunodeficiency virus 1, F227L-V106A mutant
[11] = tested on: Human immunodeficiency virus 1; test: Antiviral activity against HIV-1 K103N-Y181C mutant infected in human MT4 cells assessed as reduction in viral replication by MTT assay; format: functional, organism-based; conditions: Human immunodeficiency virus 1, K103N-Y181C mutant
[12] = biological target: Human immunodeficiency virus type 1 reverse transcriptase (Human immunodeficiency virus 1, UniProt Q72547); test: Inhibition of wild type HIV-1 Reverse transcriptase

SMILES | EC50 [1] | EC50 [2] | CC50 [3] | selectivity ratio [4] | EC50 [5] | EC50 [6] | EC50 [7] | EC50 [8] | EC50 [9] | EC50 [10] | EC50 [11] | IC50 [12]
Cn1c(Cn2ccc(C(F)(F)F)c(Oc3ccc(-c4ccc(C#N)cc4)cc3F)c2=O)n[nH]c1=O | 4.8 µM | > 35 µM | 41.8 µM | 8.72 | 4.6 µM | 6.13 µM | 48.3 µM | > 35 µM | 7.06 µM | > 35 µM | > 35 µM | 6.35 µM
Cn1c(Cn2ccc(C(F)(F)F)c(Oc3ccc(-c4ccc(C#N)cc4)cc3Cl)c2=O)n[nH]c1=O | 6.02 µM | > 35 µM | 21.5 µM | 3.58 | 4.55 µM | 6.35 µM | > 35 µM | > 35 µM | 6.18 µM | > 35 µM | > 35 µM | 6.73 µM
Cn1c(Cn2ccc(C(F)(F)F)c(Oc3ccc(-c4ccc(C#N)cc4)c(F)c3)c2=O)n[nH]c1=O | 1.28 µM | > 35 µM | 48.5 µM | 37.8 | 1.19 µM | 3.65 µM | 19.4 µM | > 35 µM | 1.96 µM | > 35 µM | > 35 µM | 1.52 µM
COc1cc(-c2ccc(F)c(C#N)c2)ccc1Oc1c(C(F)(F)F)ccn(Cc2n[nH]c(=O)n2C)c1=O | 17.9 µM | > 35 µM | 102 µM | 5.74 | 4.41 µM | 11.2 µM | 14.7 µM | > 35 µM | 21.8 µM | > 35 µM | > 35 µM | 42.5 µM
COc1cc(-c2cc(F)cc(C#N)c2)ccc1Oc1c(C(F)(F)F)ccn(Cc2n[nH]c(=O)n2C)c1=O | 10.8 µM | > 35 µM | 113 µM | 10.4 | 7.77 µM | 16 µM | 14.2 µM | > 35 µM | 20.5 µM | > 35 µM | > 35 µM | 27.8 µM
Cn1c(Cn2ccc(C(F)(F)F)c(Oc3ccc(-c4ccc(F)c(C#N)c4)cc3)c2=O)n[nH]c1=O | 7.28 µM | > 35 µM | 49.1 µM | 6.75 | – | – | – | – | – | – | – | –
Cc1ccc(-c2cc(F)c(Oc3c(C(F)(F)F)ccn(Cc4n[nH]c(=O)n4C)c3=O)c(F)c2)cc1 | > 35 µM | > 35 µM | 20.5 µM | < 1 | – | – | – | – | – | – | – | –
COc1cc(-c2cccc(C#N)c2)ccc1Oc1c(C(F)(F)F)ccn(Cc2n[nH]c(=O)n2C)c1=O | 8.47 µM | > 35 µM | 126 µM | 14.8 | 5.61 µM | 12 µM | 13.4 µM | > 35 µM | 18.5 µM | > 35 µM | > 35 µM | 28.6 µM
COc1cc(-c2ccc(C#N)cc2)ccc1Oc1c(C(F)(F)F)ccn(Cc2n[nH]c(=O)n2C)c1=O | 8.02 µM | > 35 µM | 142 µM | 17.6 | 3.77 µM | 13 µM | 21.3 µM | > 35 µM | 19.5 µM | > 35 µM | > 35 µM | 24.6 µM
Cn1c(Cn2ccc(C(F)(F)F)c(Oc3ccc(-c4ccc(F)cc4)cc3)c2=O)n[nH]c1=O | > 35 µM | > 35 µM | 36.5 µM | < 1 | – | – | – | – | – | – | – | –
Cn1c(Cn2ccc(C(F)(F)F)c(Oc3ccc(-c4cccc(C#N)c4)cc3F)c2=O)n[nH]c1=O | 3.68 µM | > 35 µM | 35.3 µM | 9.6 | 4.93 µM | 7.38 µM | > 35 µM | > 35 µM | 5.41 µM | > 35 µM | > 35 µM | 5 µM
Cn1c(Cn2ccc(C(F)(F)F)c(Oc3cc(C#N)cc(-c4ccc(F)cc4)c3)c2=O)n[nH]c1=O | 0.053 µM | > 35 µM | > 267 µM | > 4840 | 0.088 µM | 0.042 µM | 0.34 µM | 3.56 µM | 0.12 µM | > 35 µM | 1.46 µM | 0.11 µM
Cc1cc(Oc2c(C(F)(F)F)ccn(Cc3n[nH]c(=O)n3C)c2=O)ccc1-c1ccc(F)c(C#N)c1 | 0.6 µM | > 35 µM | 42.5 µM | 70.6 | 1.58 µM | 2.33 µM | 6.91 µM | > 35 µM | 1.37 µM | > 35 µM | > 35 µM | 1.46 µM
Cc1ccc(-c2ccc(Oc3c(C(F)(F)F)ccn(Cc4n[nH]c(=O)n4C)c3=O)c(C)c2)cc1 | > 35 µM | > 35 µM | 16.9 µM | ≤ 1 | – | – | – | – | – | – | – | –
Cn1c(Cn2ccc(C(F)(F)F)c(Oc3ccc(-c4cccc(F)c4)cc3Cl)c2=O)n[nH]c1=O | > 35 µM | > 35 µM | 20.1 µM | < 1 | – | – | – | – | – | – | – | –
Cc1cc(C#N)cc(C)c1Oc1nc(Nc2ccc(C#N)cc2)nc(N)c1Br [ETRAVIRINE] | 0.029 µM | > 35 µM | > 4.6 µM | > 1600 | – | – | – | 0.018 µM | – | – | 0.031 µM | –
Cn1c(Cn2ccc(C(F)(F)F)c(Oc3ccc(-c4cccc(F)c4)cc3F)c2=O)n[nH]c1=O | > 35 µM | > 35 µM | 46.8 µM | ≤ 1 | – | – | – | – | – | – | – | –

SMILES | EC50 [1] | EC50 [2] | CC50 [3] | selectivity ratio [4] | EC50 [5] | EC50 [6] | EC50 [7] | EC50 [8] | EC50 [9] | EC50 [10] | EC50 [11] | IC50 [12]
Cn1c(Cn2ccc(C(F)(F)F)c(Oc3ccc(-c4ccc(F)cc4)c(F)c3)c2=O)n[nH]c1=O | 8.92 µM | > 35 µM | 25.6 µM | 2.87 | – | – | – | – | – | – | – | –
Cc1ccc(-c2ccc(Oc3c(C(F)(F)F)ccn(Cc4n[nH]c(=O)n4C)c3=O)c(Cl)c2)cc1 | > 35 µM | > 35 µM | 50.9 µM | < 1 | – | – | – | – | – | – | – | –
Cc1cccc(-c2ccc(Oc3c(C(F)(F)F)ccn(Cc4n[nH]c(=O)n4C)c3=O)c(F)c2)c1 | > 35 µM | > 35 µM | 20.3 µM | ≤ 1 | – | – | – | – | – | – | – | –
Cc1ccc(-c2ccc(Oc3c(C(F)(F)F)ccn(Cc4n[nH]c(=O)n4C)c3=O)cc2C)cc1 | > 35 µM | > 35 µM | 26.6 µM | < 1 | – | – | – | – | – | – | – | –
Cn1c(Cn2ccc(C(F)(F)F)c(Oc3ccc(-c4ccc(F)cc4)cc3Cl)c2=O)n[nH]c1=O | > 35 µM | > 35 µM | 16.7 µM | < 1 | – | – | – | – | – | – | – | –
Cc1cc(Oc2c(C(F)(F)F)ccn(Cc3n[nH]c(=O)n3C)c2=O)ccc1-c1ccc(F)cc1 | > 35 µM | > 35 µM | 23.7 µM | ≤ 4 | – | – | – | – | – | – | – | –
Cn1c(Cn2ccc(C(F)(F)F)c(Oc3c(F)cc(-c4ccc(F)cc4)cc3F)c2=O)n[nH]c1=O | > 35 µM | > 35 µM | 18.2 µM | ≤ 2 | – | – | – | – | – | – | – | –
Cn1c(Cn2ccc(C(F)(F)F)c(Oc3ccc(-c4ccc(F)cc4)cc3F)c2=O)n[nH]c1=O | > 35 µM | > 35 µM | 24.1 µM | < 1 | – | – | – | – | – | – | – | –
Cc1cccc(-c2ccc(Oc3c(C(F)(F)F)ccn(Cc4n[nH]c(=O)n4C)c3=O)cc2F)c1 | 4.58 µM | > 35 µM | 27.7 µM | 6.05 | 4.83 µM | > 35 µM | > 35 µM | > 35 µM | – | 7.66 µM | > 35 µM | 17.9 µM
Cc1ccc(-c2ccc(Oc3c(C(F)(F)F)ccn(Cc4n[nH]c(=O)n4C)c3=O)cc2F)cc1 | 8.05 µM | > 35 µM | 28.2 µM | 3.52 | – | – | – | – | – | – | – | –
Cc1ccc(-c2ccc(Oc3c(C(F)(F)F)ccn(Cc4n[nH]c(=O)n4C)c3=O)cc2)cc1 | > 35 µM | > 35 µM | 25 µM | < 1 | – | – | – | – | – | – | – | –
Cc1cccc(-c2ccc(Oc3c(C(F)(F)F)ccn(Cc4n[nH]c(=O)n4C)c3=O)c(Cl)c2)c1 | > 35 µM | > 35 µM | 24.7 µM | < 1 | – | – | – | – | – | – | – | –
Cc1ccc(-c2ccc(Oc3c(C(F)(F)F)ccn(Cc4n[nH]c(=O)n4C)c3=O)c(F)c2)cc1 | > 35 µM | > 35 µM | 38 µM | < 1 | – | – | – | – | – | – | – | –
Cc1cccc(-c2ccc(Oc3c(C(F)(F)F)ccn(Cc4n[nH]c(=O)n4C)c3=O)c(C)c2)c1 | > 35 µM | > 35 µM | 19.1 µM | ≤ 2 | – | – | – | – | – | – | – | –
Cc1cccc(-c2cc(F)c(Oc3c(C(F)(F)F)ccn(Cc4n[nH]c(=O)n4C)c3=O)c(F)c2)c1 | > 35 µM | > 35 µM | 20.9 µM | < 1 | – | – | – | – | – | – | – | –
Cc1cccc(-c2ccc(Oc3c(C(F)(F)F)ccn(Cc4n[nH]c(=O)n4C)c3=O)cc2)c1 | > 35 µM | > 35 µM | 32.3 µM | < 1 | – | – | – | – | – | – | – | –
Cn1c(Cn2ccc(C(F)(F)F)c(Oc3ccc(-c4cccc(F)c4)cc3)c2=O)n[nH]c1=O | > 35 µM | > 35 µM | 48.3 µM | < 1 | – | – | – | – | – | – | – | –
